Test results from patent publication US8927563B2, “Kinase inhibitor” (Respivert Limited, priority 2013, dated 2015).
Where two headings read alike, the source gives them in different places.

What was measured:
Syk [1] = target: T1, Syk (Homo sapiens (Human), UniProt P43405); assay: KINOMEscan dissociation constant, Syk; format: binding
Method: (§1) Kinase enzyme binding activities of compounds disclosed herein may be determined using a proprietary assay which measures active site-directed competition binding to an immobilized ligand (Fabian, M. A. et al., Nature Biotechnol., 2005, 23:329-336). These assays may be conducted by DiscoverX (formerly Ambit; San Diego, Calif.). The percentage inhibition produced by incubation with a test compound may be calculated relative to the non-inhibited control.

B-Raf = B-Raf (Homo sapiens (Human), UniProt P15056); assay: KINOMEscan binding of B-Raf to standard ligand
B-Raf, sequence (P15056 whole entry): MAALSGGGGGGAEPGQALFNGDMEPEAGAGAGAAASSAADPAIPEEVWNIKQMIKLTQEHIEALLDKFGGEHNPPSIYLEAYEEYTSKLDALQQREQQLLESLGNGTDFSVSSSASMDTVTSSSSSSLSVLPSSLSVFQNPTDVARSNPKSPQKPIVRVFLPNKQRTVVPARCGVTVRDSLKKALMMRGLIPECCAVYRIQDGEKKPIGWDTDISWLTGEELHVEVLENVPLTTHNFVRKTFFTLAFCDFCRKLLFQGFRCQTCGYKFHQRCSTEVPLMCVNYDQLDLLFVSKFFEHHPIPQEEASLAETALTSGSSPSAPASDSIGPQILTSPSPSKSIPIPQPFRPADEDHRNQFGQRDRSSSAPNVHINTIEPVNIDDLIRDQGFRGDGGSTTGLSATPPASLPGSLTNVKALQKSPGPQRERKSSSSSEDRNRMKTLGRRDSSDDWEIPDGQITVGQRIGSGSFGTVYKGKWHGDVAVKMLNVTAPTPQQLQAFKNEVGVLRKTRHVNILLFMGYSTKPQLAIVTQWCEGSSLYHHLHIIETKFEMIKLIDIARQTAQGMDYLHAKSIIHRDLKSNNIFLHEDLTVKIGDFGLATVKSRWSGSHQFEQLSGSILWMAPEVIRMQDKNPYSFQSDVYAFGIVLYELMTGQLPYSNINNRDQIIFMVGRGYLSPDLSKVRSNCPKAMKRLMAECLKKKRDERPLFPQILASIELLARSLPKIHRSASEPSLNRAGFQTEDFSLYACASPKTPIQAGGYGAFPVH
Method: as §1

p38 MAPKα = p38 MAPKα (Homo sapiens (Human), UniProt Q16539); assay: p38 MAPKα enzyme inhibition (Method 2), Z-LYTE FRET; format: biochemical
p38 MAPKα, sequence (Q16539 whole entry, looked up): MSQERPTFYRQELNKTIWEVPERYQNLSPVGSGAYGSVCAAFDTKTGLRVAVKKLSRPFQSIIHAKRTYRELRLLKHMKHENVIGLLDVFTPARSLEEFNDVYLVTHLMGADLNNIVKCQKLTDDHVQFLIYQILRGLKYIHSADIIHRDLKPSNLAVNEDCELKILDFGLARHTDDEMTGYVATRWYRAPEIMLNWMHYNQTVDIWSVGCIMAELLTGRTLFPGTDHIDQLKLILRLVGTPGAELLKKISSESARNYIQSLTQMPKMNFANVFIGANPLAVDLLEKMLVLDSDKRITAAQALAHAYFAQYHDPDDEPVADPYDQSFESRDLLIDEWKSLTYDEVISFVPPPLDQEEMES
Method: (§2) The enzyme inhibitory activities of compounds disclosed herein are determined by FRET using synthetic peptides labelled with both donor and acceptor fluorophores (Z-LYTE, Invitrogen Ltd., Paisley, UK).
The inhibitory activities of test compounds against the p38 MAPKα isoform (MAPK14: Invitrogen) are evaluated indirectly by determining the level of activation/phosphorylation of the down-stream molecule, MAPKAP-K2. The p38 MAPKα protein (80 ng/mL, 2.5 μL) is mixed with the test compound (2.5 μL of either 4 μg/mL, 0.4 μg/mL, […] or 0.004 μg/mL) for 2 hr at RT. […] The mixture is incubated for 1 hr at RT. Development reagent (protease, 5 μL) is added for 1 hr prior to detection in a fluorescence microplate reader (Varioskan® Flash, ThermoFisher Scientific). […]
(§3) In all cases, the site-specific protease cleaves non-phosphorylated peptide only and eliminates the FRET signal. Phosphorylation levels of each reaction are calculated using the ratio of coumarin emission (donor) over fluorescein emission (acceptor), for which high ratios indicate high phosphorylation and low ratios indicate low phosphorylation levels.

Syk [2] = target: T1, Syk; assay: Syk enzyme inhibition, Z-LYTE FRET; format: biochemical
Method: as §2
The inhibitory activities of the compound of the invention against c-Src and Syk enzymes (Invitrogen) are evaluated in a similar fashion to that described hereinabove. The relevant enzyme (3000 ng/mL or 2000 ng/mL respectively, 2.5 μL) is incubated with the test compound (either 1 μg/mL, 0.1 μg/mL, 0.01 μg/mL, or 0.001 μg/mL, 2.5 μL each) for 2 hr at RT. The FRET peptides (8 μM, 2.5 μL) and appropriate ATP solutions (2.5 μL, 800 μM for c-Src, and 60 μM ATP for Syk) are then added to the enzymes/compound mixtures and the mixture incubated for 1 hr. Development reagent (protease, 5 μL) is added for 1 hr prior to detection in a fluorescence microplate reader (Varioskan® Flash, ThermoFisher Scientific).
as §3

[3] = test system: adoptive transfer colitis; assay: Adoptive transfer mouse model; format: in vivo, mice
Method: On Study day 0, female Balb/C mice are terminated and spleens obtained for CD45RB^high cell isolation (Using SCID IBD cell Separation protocol). Approximately 4×10^5 cells/mL CD45RB^high cells are then injected intraperitoneally (100 μL/mouse) into female SCID animals. On study day 14, mice are weighed and randomized into treatment groups based on body weight. On Day 14, the compound is administered BID, via oral gavage, in a vehicle comprising a defined mixture of corn oil (32.5%), transcutol (20%), maisine (12.5%) and cremophor ELP (35%) at the dose levels outlined below in Tables 6a and 6b and a dose volume of 5 mL/kg. Treatment continues until study day 42, at which point the animals are necropsied 4 hours after the morning administration. The colon length and weight are recorded and used as a secondary endpoint in the study as a measurement of colon oedema. The colon is then divided into six cross-sections, four of which are used for histopathology scoring (primary endpoint) and two are homogenised for cytokine analysis. Data shown is the % inhibition of the induction window between naïve animals and vehicle animals, where higher inhibition implies closer to the non-diseased, naïve, phenotype.

[4] = Plasma pharmacokinetics and total colon distribution after oral administration to mice; format: in vivo; conditions: male, C57BL/6, mouse, total colon, oral 5 mg/kg, vehicle B, read-out: Median total colon concentration
Method: Studies were conducted by Sai Life Sciences (Hinjewadi, Pune, India) to investigate the plasma pharmacokinetics and total colon tissue distribution of Compound I. In particular, pharmacokinetic studies were carried out in: • male C57BL/6 mice, following a single oral administration; and • male Wistar rats following a single intravenous or oral administration.

CYP3A4 = CYP3A4 (Homo sapiens (Human), UniProt P08684); assay: CYP3A4 inhibition with and without preincubation; format: in vitro ADME; conditions: for inhibition at 15 µM: human, read-out: 15 μM % Inh
CYP3A4, sequence (P08684 whole entry): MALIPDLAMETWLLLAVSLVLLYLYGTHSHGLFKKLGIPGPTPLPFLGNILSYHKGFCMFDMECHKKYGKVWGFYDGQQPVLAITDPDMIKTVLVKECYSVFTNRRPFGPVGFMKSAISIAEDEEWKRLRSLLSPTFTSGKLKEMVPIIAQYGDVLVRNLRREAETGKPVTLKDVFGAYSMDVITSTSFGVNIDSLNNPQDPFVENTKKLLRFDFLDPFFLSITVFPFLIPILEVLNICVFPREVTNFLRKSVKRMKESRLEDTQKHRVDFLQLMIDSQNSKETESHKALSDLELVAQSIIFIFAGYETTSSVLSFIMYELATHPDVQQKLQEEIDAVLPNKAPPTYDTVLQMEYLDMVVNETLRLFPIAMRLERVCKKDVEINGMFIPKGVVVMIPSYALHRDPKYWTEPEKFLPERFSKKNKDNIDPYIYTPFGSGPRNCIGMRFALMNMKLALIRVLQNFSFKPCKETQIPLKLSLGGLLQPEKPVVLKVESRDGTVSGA
Method: (§4) Assessment of certain in vitro ADME (absorption, distribution, metabolism, and excretion) parameters for Compound I was conducted by BioFocus (Saffron Walden, UK). The results reveal that Compound I is cleared rapidly by human hepatocytes and that it has a reduced liability for time-dependent cytochrome P450 inhibition.

CYP2C9 = CYP2C9 (Homo sapiens (Human), UniProt P11712); assay: CYP2C9 inhibition with and without preincubation; format: in vitro ADME; conditions: for inhibition at 15 µM: human, read-out: 15 μM % Inh
CYP2C9, sequence (P11712 whole entry): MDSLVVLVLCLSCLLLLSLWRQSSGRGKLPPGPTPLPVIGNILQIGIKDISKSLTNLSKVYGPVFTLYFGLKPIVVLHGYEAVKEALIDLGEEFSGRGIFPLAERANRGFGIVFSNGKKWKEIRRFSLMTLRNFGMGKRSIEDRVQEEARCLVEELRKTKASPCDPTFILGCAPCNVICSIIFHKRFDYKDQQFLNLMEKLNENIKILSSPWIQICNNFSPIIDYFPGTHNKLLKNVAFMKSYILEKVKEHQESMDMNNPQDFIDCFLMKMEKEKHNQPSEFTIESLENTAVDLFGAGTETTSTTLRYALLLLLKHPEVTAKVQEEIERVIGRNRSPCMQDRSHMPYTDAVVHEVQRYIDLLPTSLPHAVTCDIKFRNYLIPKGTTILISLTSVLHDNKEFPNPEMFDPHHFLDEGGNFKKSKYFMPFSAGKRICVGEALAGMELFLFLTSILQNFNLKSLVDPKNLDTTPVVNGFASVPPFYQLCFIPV
Method: as §4

[5] = Hydrolytic stability study; format: physicochemical; conditions: buffer, 1 mg/mL
Method: Chemical stability of Compound I was assessed in a mixture of DMSO and water (3:1) at a test compound concentration of 1 mg/mL
Sample Preparation • A 1.0 mg sample of test compound was dissolved in 750 μL of DMSO. Water (250 μL) was added slowly, ensuring no precipitation occurred.
Recording Stability • A 50 μL aliquot of the test solution was removed and analysed in duplicate by 5 μL HPLC injections. The peak area for the test compound was recorded following manual integration of the corresponding UV trace. • The test solution was heated to 60° C., with stirring, and 50 μL aliquots removed for HPLC analysis at 5 and 24 h timepoints.

With `C#Cc1cc(Nc2nccc(Oc3ccc(NC(=O)Nc4cc(C(C)(C)C)cc(NS(C)(=O)=O)c4OC)c4ccccc34)n2)cc(C(=O)NCCOCCOCCOC)c1` [Compound I, 3-((4-((4-(3-(5-(tert-Butyl)-2-methoxy-3-(methylsulfonamido)phenyl)ureido)naphthalen-1-yl)oxy)pyrimidin-2-yl)amino)-5-ethynyl-N-(2-(2-(2-methoxyethoxy)ethoxy)ethyl)benzamide] the Kd (Syk [1]) was 0.021 µM, the “effect on binding of B-Raf to its standard ligand” value (B-Raf) was “did not have any significant effect” and the IC50 (p38 MAPKα) was 0.224 µM. For the same molecule, the IC50 (Syk [2]) was 0.591 µM, the “IFNγ level in colon tissue” value ([3]; 3 mg/kg) was 10.8 ± 3.3 pg/mL and the “IL-8 level in colon tissue” value ([3]; 3 mg/kg) was 70.8 ± 22.8 pg/mL. The “Colon weight:length” value ([3]; 3 mg/kg BID oral) was 0.024 ± 0.003, the “% Inhibition of induction window between naïve and vehicle animals” value ([3]; 3 mg/kg BID oral, colon weight:length) was 90% and the “Colon weight:length” value ([3]; additional study, 0.03 mg/kg) was 0.033 ± 0.002. The “Colon weight:length” value ([3]; additional study, 0.3 mg/kg) was 0.041 ± 0.005, the “Colon weight:length” value ([3]; additional study, 3 mg/kg) was 0.034 ± 0.003 and the concentration at 1 h ([4]; 1 h) was 0 ng/g. It also gave a concentration at 2 h ([4]; 2 h) of 10.4 ng/g, a concentration at 4 h ([4]; 4 h) of 420 ng/g and a concentration at 6 h ([4]; 6 h) of 3080 ng/g. For the same molecule, the concentration at 8 h ([4]; 8 h) was 1950 ng/g, the concentration at 12 h ([4]; 12 h) was 126 ng/g and the concentration at 24 h ([4]; 24 h) was 23 ng/g. It also gave an IC50 (CYP3A4; CYP3A4, 0 min preincubation) of over 15 µM, an IC50 (CYP3A4; CYP3A4, 30 min preincubation) of 7.8 µM and an inhibition at 15 µM (CYP3A4; CYP3A4, 0 min preincubation) of 31%. It also gave an inhibition at 15 µM (CYP3A4; CYP3A4, 30 min preincubation) of 54%, an IC50 (CYP2C9; CYP2C9, 0 min preincubation) of over 15 µM and an IC50 (CYP2C9; CYP2C9, 30 min preincubation) of over 15 µM. For the same molecule, the inhibition at 15 µM (CYP2C9; CYP2C9, 0 min preincubation) was 21%, the inhibition at 15 µM (CYP2C9; CYP2C9, 30 min preincubation) was 37% and the “% Parent Remaining” value ([5]; 0 h) was 100%. For the same molecule, the “% Parent Remaining” value ([5]; 5 h) was 100% and the “% Parent Remaining” value ([5]; 24 h) was 100%.
